Data published in ChEMBL document CHEMBL5390209, “Spinosyn A and Its Derivative Inhibit Colorectal Cancer Cell Growth via the EGFR Pathway” (J Nat Prod, 2023).
The source made the active and inactive calls. The calls are words filed in the database; no cut-off is given here.

How the values were obtained:
[1] = test system: HT-29; test: Antiproliferative activity against double EGFR/HER2 knockout human HT-29 cells assessed as reduction in cell viability incubated for 48 hrs by MTT assay; assay type: functional, cell-based
[2] = molecular target: Receptor tyrosine-protein kinase erbB-2 (Homo sapiens) (UniProt P04626); test: Inhibition of HER2 phosphorylation in human SW480 cells incubated for 24 hrs by Western blotting analysis; assay type: cell-based
Chain of Receptor tyrosine-protein kinase erbB-2 (Homo sapiens) (P04626 whole entry): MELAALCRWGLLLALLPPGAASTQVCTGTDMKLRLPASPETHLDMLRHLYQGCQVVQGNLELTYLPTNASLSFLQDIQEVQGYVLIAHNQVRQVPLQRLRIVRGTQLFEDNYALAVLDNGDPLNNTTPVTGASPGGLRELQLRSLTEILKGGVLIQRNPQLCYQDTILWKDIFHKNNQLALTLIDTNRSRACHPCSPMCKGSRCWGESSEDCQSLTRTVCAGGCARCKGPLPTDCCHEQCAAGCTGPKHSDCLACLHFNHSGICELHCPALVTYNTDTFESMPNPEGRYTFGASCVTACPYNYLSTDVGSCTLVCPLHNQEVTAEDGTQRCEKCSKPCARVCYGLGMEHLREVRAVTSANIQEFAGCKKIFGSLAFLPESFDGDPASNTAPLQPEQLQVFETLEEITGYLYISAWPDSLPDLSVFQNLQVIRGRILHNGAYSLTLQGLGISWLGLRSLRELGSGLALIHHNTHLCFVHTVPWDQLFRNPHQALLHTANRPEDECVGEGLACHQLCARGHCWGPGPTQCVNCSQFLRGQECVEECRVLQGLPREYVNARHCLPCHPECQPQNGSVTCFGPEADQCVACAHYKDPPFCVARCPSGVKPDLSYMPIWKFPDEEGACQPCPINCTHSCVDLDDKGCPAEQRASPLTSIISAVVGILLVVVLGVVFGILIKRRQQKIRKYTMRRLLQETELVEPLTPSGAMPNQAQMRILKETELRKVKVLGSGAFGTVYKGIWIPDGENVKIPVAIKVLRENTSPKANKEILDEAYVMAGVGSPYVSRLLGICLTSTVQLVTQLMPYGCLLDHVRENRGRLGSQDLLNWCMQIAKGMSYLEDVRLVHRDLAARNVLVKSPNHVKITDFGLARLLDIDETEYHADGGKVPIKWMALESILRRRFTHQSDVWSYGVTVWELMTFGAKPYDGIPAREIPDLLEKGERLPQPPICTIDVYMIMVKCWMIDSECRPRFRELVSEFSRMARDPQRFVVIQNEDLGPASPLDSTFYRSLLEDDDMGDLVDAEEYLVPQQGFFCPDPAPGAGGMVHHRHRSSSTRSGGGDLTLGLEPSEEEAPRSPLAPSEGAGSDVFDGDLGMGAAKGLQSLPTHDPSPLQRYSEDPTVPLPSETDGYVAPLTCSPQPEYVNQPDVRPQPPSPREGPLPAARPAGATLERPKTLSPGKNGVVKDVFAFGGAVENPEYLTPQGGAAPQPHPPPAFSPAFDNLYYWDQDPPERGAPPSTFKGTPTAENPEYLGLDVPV

[3] = test system: HT-29; test: Antiproliferative activity against EGFR knockout human HT-29 cells assessed as reduction in cell viability incubated for 48 hrs by MTT assay; assay type: functional, cell-based
[4] = test system: SW480; test: Antiproliferative activity against double EGFR/HER2 knockout human SW480 cells assessed as reduction in cell viability incubated for 48 hrs by MTT assay; assay type: functional, cell-based
[5] = test system: HT-29; test: Antiproliferative activity against human HT-29 cells assessed as cell growth inhibition incubated for 48 hrs by MTT assay; assay type: functional, cell-based; details: for IC50: HT-29, 48 h
[6] = test system: HT-29; test: Antiproliferative activity against HER2 knockout human HT-29 cells assessed as reduction in cell viability incubated for 48 hrs by MTT assay; assay type: functional, cell-based
[7] = molecular target: Epidermal growth factor receptor (Homo sapiens) (UniProt P00533); test: Inhibition of EGFR in human SW480 cells incubated for 24 hrs by Western blotting analysis; assay type: cell-based
Chain of Epidermal growth factor receptor (Homo sapiens) (P00533 whole entry): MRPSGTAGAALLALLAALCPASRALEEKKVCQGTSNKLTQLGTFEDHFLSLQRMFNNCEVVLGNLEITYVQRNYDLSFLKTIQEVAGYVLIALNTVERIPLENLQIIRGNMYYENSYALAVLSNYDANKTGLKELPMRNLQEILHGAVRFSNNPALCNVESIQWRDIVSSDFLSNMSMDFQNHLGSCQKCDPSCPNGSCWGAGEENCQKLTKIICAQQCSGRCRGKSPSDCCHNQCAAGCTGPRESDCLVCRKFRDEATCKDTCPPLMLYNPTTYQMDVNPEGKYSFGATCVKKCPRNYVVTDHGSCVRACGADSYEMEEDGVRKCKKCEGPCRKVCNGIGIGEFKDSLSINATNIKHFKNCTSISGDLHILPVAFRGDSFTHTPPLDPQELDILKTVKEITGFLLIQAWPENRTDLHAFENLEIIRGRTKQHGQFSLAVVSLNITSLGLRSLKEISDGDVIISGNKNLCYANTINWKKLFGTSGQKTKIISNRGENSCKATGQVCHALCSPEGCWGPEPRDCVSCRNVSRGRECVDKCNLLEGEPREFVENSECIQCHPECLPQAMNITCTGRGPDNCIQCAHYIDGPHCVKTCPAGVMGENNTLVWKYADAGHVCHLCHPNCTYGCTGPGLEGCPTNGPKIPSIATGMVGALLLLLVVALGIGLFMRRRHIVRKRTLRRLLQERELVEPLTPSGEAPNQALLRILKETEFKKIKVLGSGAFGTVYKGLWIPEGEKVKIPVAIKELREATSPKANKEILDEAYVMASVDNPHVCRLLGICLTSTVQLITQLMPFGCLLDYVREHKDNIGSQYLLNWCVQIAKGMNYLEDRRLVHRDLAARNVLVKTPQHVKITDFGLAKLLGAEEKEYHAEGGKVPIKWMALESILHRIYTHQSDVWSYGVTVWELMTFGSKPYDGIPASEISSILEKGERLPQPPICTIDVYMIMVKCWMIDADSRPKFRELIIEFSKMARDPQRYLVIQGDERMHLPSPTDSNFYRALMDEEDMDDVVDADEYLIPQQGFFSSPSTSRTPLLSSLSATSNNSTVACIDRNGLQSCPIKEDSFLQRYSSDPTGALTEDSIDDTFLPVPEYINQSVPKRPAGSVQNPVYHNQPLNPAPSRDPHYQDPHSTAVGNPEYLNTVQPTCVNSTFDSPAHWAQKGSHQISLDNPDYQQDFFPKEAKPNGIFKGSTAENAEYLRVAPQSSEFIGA

[8] = test system: HT-29; test: Antitumor activity against human HT-29 cells xenografted Balb/c mouse assessed as reduction in tumor growth at 5 mg/kg/day, ip administrated for every other day and measured after 28 days; assay type: functional, organism-based; details: time 28.0 day
[9] = Toxicity in human HT-29 cells xenografted Balb/c mouse assessed as change in heart pathology at 5 mg/kg/day, ip administrated for every other day and measured after 28 days; assay type: organism-based; details: in vivo, 672 h, time 28 day
[10] = molecular target: Receptor tyrosine-protein kinase erbB-2 (Homo sapiens) (UniProt P04626); test: Inhibition of HER2 phosphorylation in human HT-29 cells incubated for 24 hrs by Western blotting analysis; assay type: cell-based
[11] = molecular target: Epidermal growth factor receptor (Homo sapiens) (UniProt P00533); test: Inhibition of EGFR phosphorylation in human SW480 cells incubated for 24 hrs by Western blotting analysis; assay type: cell-based
[12] = test system: SW480; test: Antiproliferative activity against human SW480 cells assessed as cell growth inhibition incubated for 48 hrs by MTT assay; assay type: functional, cell-based; details: dose >= 10.0 µM
[13] = Toxicity in human HT-29 cells xenografted Balb/c mouse assessed as change in kidney pathology at 5 mg/kg/day, ip administrated for every other day and measured after 28 days; assay type: organism-based; details: in vivo, 672 h, time 28 day
[14] = test system: SW-620; test: Antiproliferative activity against human SW620 cells assessed as cell growth inhibition incubated for 48 hrs by MTT assay; assay type: functional, cell-based; details: dose >= 10.0 µM
[15] = test system: HT-29; test: Inhibition of HER2 in human HT-29 cells xenografted in BALB/c nude mouse assessed as reduction in HER2 protein expression level at 5 mg/kg/day, ip administrated for every other day and measured after 28 days by immunohistochemistry staining based analysis; assay type: functional, organism-based; details: time 28.0 day
[16] = test system: RKO; test: Antiproliferative activity against human RKO cells assessed as cell growth inhibition incubated for 48 hrs by MTT assay; assay type: functional, cell-based
[17] = test system: LoVo; test: Antiproliferative activity against human LoVo cells assessed as cell growth inhibition incubated for 48 hrs by MTT assay; assay type: functional, cell-based; details: dose >= 10.0 µM
[18] = test system: HCT-116; test: Antiproliferative activity against human HCT-116 cells assessed as cell growth inhibition incubated for 48 hrs by MTT assay; assay type: functional, cell-based; details: dose >= 10.0 µM
[19] = molecular target: Receptor tyrosine-protein kinase erbB-2 (Homo sapiens) (UniProt P04626); test: Inhibition of HER2 in human SW480 cells incubated for 24 hrs by Western blotting analysis; assay type: cell-based
[20] = molecular target: Receptor tyrosine-protein kinase erbB-2 (Homo sapiens) (UniProt P04626); test: Inhibition of HER2 in human HT-29 cells incubated for 24 hrs by Western blotting analysis; assay type: cell-based
[21] = test system: SW480; test: Inhibition of colony formation in double EGFR/HER2 knockdown human SW480 cells at 6 uM incubated for 14 days by crystal violet staining based colony formation assay; assay type: functional, cell-based; details: time 14.0 day
[22] = molecular target: Epidermal growth factor receptor (Homo sapiens) (UniProt P00533); test: Inhibition of EGFR in human HT-29 cells incubated for 24 hrs by Western blotting analysis; assay type: cell-based; details: dose 3.75-15 µM
[23] = molecular target: Epidermal growth factor receptor (Homo sapiens) (UniProt P00533); test: Inhibition of EGFR in human SW480 cells assessed as reduction in MEK1/2 phosphorylation level at 3.75 to 15 uM incubated for 24 hrs by Western blot analysis; assay type: cell-based; details: dose 3.75-15 µM
[24] = test system: HT-29; test: Antitumor activity against human HT-29 cells xenografted Balb/c mouse assessed as reduction in Ki67 expression level at 5 mg/kg/day, ip administrated for every other day and measured after 28 days by immunohistochemistry staining method; assay type: functional, organism-based; details: time 28.0 day
[25] = molecular target: Epidermal growth factor receptor (Homo sapiens) (UniProt P00533); test: Inhibition of EGFR phosphorylation in human HT-29 cells incubated for 24 hrs by Western blotting analysis; assay type: cell-based
[26] = test system: HT-29; test: Inhibition of colony formation in EGFR knockdown human HT-29 cells at 6 uM incubated for 14 days by crystal violet staining based colony formation assay; assay type: functional, cell-based; details: time 14.0 day
[27] = test system: SW480; test: Inhibition of colony formation in EGFR knockdown human SW480 cells at 6 uM incubated for 14 days by crystal violet staining based colony formation assay; assay type: functional, cell-based; details: time 14.0 day
[28] = molecular target: Epidermal growth factor receptor (Homo sapiens) (UniProt P00533); test: Inhibition of EGFR in human HT-29 cells at 15 uM by Western blot analysis; assay type: cell-based; details: time 3-15 hrs, TDE = time-dependent effect
[29] = test system: DLD-1; test: Antiproliferative activity against human DLD-1 cells assessed as cell growth inhibition incubated for 48 hrs by MTT assay; assay type: functional, cell-based; details: dose >= 10.0 µM
[30] = test system: SW480; test: Antiproliferative activity against EGFR knockout human SW480 cells assessed as reduction in cell viability incubated for 48 hrs by MTT assay; assay type: functional, cell-based
[31] = test system: HT-29; test: Antitumor activity against human HT-29 cells xenografted Balb/c mouse assessed as reduction in Ki67 expression level at 2.5 mg/kg/day, ip administrated for every other day and measured after 28 days by immunohistochemistry staining method; assay type: functional, organism-based; details: time 28.0 day
[32] = Toxicity in human HT-29 cells xenografted Balb/c mouse assessed as change in heart pathology at 2.5 mg/kg/day, ip administrated for every other day and measured after 28 days; assay type: organism-based; details: in vivo, 672 h, time 28 day
[33] = Toxicity in human HT-29 cells xenografted Balb/c mouse assessed as change in spleen pathology at 2.5 mg/kg/day, ip administrated for every other day and measured after 28 days; assay type: organism-based; details: in vivo, 672 h, time 28 day
[34] = molecular target: Epidermal growth factor receptor (Homo sapiens) (UniProt P00533); test: Inhibition of EGFR in human HT-29 cells assessed as reduction in STAT3 phosphorylation level at 0.5 to 2 uM incubated for 24 hrs by Western blot analysis; assay type: cell-based; details: dose 0.5-2 µM
[35] = molecular target: Epidermal growth factor receptor (Homo sapiens) (UniProt P00533); test: Inhibition of EGFR in human HT-29 cells assessed as reduction in MEK1/2 phosphorylation level at 0.5 to 2 uM incubated for 24 hrs by Western blotting analysis; assay type: cell-based; details: dose 0.5-2 µM
[36] = molecular target: Epidermal growth factor receptor (Homo sapiens) (UniProt P00533); test: Inhibition of EGFR in human HT-29 cells assessed as reduction in STAT3 phosphorylation level at 2 uM by Western blotting analysis; assay type: cell-based; details: time 3-15 hrs, TDE = time-dependent effect
[37] = Toxicity in human HT-29 cells xenografted Balb/c mouse assessed as change in lung pathology at 2.5 mg/kg/day, ip administrated for every other day and measured after 28 days; assay type: organism-based; details: in vivo, 672 h, time 28 day
[38] = test system: HT-29; test: Inhibition of colony formation in double EGFR/HER2 knockdown human HT-29 cells at 0.75 uM incubated for 14 days by crystal violet staining based colony formation assay; assay type: functional, cell-based; details: time 14.0 day
[39] = molecular target: Receptor tyrosine-protein kinase erbB-2 (Homo sapiens) (UniProt P04626); test: Inhibition of HER2 in human HT-29 cells at 2 uM by Western blotting analysis; assay type: cell-based; details: time 3-15 hrs, TDE = time-dependent effect
[40] = test system: HT-29; test: Antitumor activity against human HT-29 cells xenografted Balb/c mouse assessed as inhibited tumor growth at 2.5 mg/kg/day, ip administrated for every other day and measured after 6 days; assay type: functional, organism-based; details: time 6.0 day

Compound | Activity [1] | inhibition [2] | Activity [3] | Activity [4] | Activity [5] | IC50 [5] [µM] | Activity [6] | inhibition [7] | inhibition [10] | inhibition [11] | Activity [12] | Activity [14] | IC50 [16] [µM] | Activity [17] | Activity [18] | inhibition [19] | inhibition [20] | inhibition [22] | inhibition [25] | Activity [29] | also measured
CC[C@H]1CCC[C@H](O[C@H]2CC[C@H](N(C)C)[C@@H](C)O2)[C@@H](C)C(=O)C2=C[C@@H]3[C@@H](C=C[C@@H]4C[C@@H](O[C@@H]5O[C@@H](C)[C@H](OC)[C@@H](OC)[C@H]5OC)C[C@@H]34)[C@@H]2CC(=O)O1 [SPINOSYN A] | inactive | Dose-Dependent Effect | inactive | inactive | Dose-Dependent Effect | 7.3 | inactive | Dose-Dependent Effect | Dose-Dependent Effect | Dose-Dependent Effect | Dose-Dependent Effect | Dose-Dependent Effect | 17 | Dose-Dependent Effect | Dose-Dependent Effect | Dose-Dependent Effect | Dose-Dependent Effect | Dose-Dependent Effect | Dose-Dependent Effect | Dose-Dependent Effect | Activity [8]: Active; Activity [9]: Non-Toxic; Activity [13]: Non-Toxic; inhibition [15]: Active; Activity ([16]; dose >= 10.0 µM): Dose-Dependent Effect; Activity [21]: inactive; inhibition [23]: Active; Activity [24]: Active; Activity [26]: inactive; Activity [27]: Active; inhibition [28]: Tde; Activity [30]: inactive
CC[C@H]1CCC[C@H](O[C@H]2CC[C@H](N(C)CC(O)CN3CCNCC3)[C@@H](C)O2)[C@@H](C)C(=O)C2=C[C@@H]3[C@@H](C=C[C@@H]4C[C@@H](O[C@@H]5O[C@@H](C)[C@H](OC)[C@@H](OC)[C@H]5OC)C[C@@H]34)[C@@H]2CC(=O)O1 (some centres undefined) | inactive | Dose-Dependent Effect | inactive | inactive | Dose-Dependent Effect | 0.75 | inactive | Dose-Dependent Effect | Dose-Dependent Effect | Dose-Dependent Effect | Dose-Dependent Effect | Dose-Dependent Effect | 3.3 | Dose-Dependent Effect | Dose-Dependent Effect | Dose-Dependent Effect | Dose-Dependent Effect | Dose-Dependent Effect | Dose-Dependent Effect | Dose-Dependent Effect | Activity [31]: Active; Activity [32]: Non-Toxic; Activity [33]: Non-Toxic; inhibition [34]: Active; inhibition [35]: Active; inhibition [36]: Tde; Activity [37]: Non-Toxic; Activity [38]: inactive; inhibition ([16]; dose >= 10.0 µM): Dose-Dependent Effect; inhibition [39]: Tde; inhibition [40]: Active; Activity [30]: inactive
